Here are results for eight molecules from US10179153B2, “Probiotic and prebiotic compositions” (AQUILON CYL SOCIEDAD LIMITADA, priority 2014, dated 2019).

For experiment [1], the system named is AqSynJ59 strain. As to conditions: cut-off used for AqSynJ59 (Lactobacillus plantarum); cited from earlier work.
The test system of experiment [2] is AqSynRMH69 strain. The conditions noted are these: cut-off used for AqSynRMH69 (Lactobacillus reuteri); cited from earlier work.
Experiment [3] relates to AqSynRMH69 strain. The experiment in a line: In vitro test of minimal inhibitory concentration (MIC) of antibiotics. Format: cell-based, Lactobacillus reuteri. As to conditions: for MIC, LSM: LAB susceptibility test medium pH 6.7, unit assumed; for Category: MIC compared with EFSA cut-off. The method, then: The evaluated antibiotics may be the following: Ampicillin, Vancomicin, Gentamicin, Kanamycin, Streptomycin, Eritromycin, Clindamycin, Tetracyclin and Chloranphenicol. An in vitro test of minimal inhibitory concentration (MIC) aimed to evaluate antibiotic resistances was performed for the above strains (AqSynJ59 and […]69). The evaluated antibiotics were the following: Ampicillin, Vancomicin, Gentamicin, Kanamycin, Streptomycin, Clindamycin, Tetracyclin and Chloranphenicol. The microbiological cut-off values that were used for evaluating the antibiotic resistances of the strains of the present invention are the ones defined in the “Guidance on the assessment of bacterial susceptibility to antimicrobials of human and veterinary importance”, EFSA Panel on Additives and Products or Substances used in Animal Feed ([…]), European Food Safety Authority (EFSA), Parma, Italy.

The test system of experiment [4] is AqSynJ59 strain. The experiment is described as above. In kind it is cell-based, Lactobacillus plantarum. The conditions noted are these: for MIC, LSM: LAB susceptibility test medium pH 6.7, unit assumed; for Category: MIC compared with EFSA cut-off. The method, then:
An in vitro test of minimal inhibitory concentration (MIC) aimed to evaluate antibiotic resistances was performed for the above strains (AqSynJ59 and […]69). […] The microbiological cut-off values that were used for evaluating the antibiotic resistances of the strains of the present invention are the ones defined in the “Guidance on the assessment of bacterial susceptibility to antimicrobials of human and veterinary importance”, EFSA Panel on Additives and Products or Substances used in Animal Feed ([…]), European Food Safety Authority (EFSA), Parma, Italy.

In brackets after ≈: the same amount, converted by molar mass.

In the case of `CC1(C)S[C@@H]2[C@H](NC(=O)[C@H](N)c3ccccc3)C(=O)N2[C@H]1C(=O)O` [Ampicillin], in experiment [1], the “EFSA (2012) values (microbiological cut-off)” value is listed as 2. Further, the “EFSA (2012) values (microbiological cut-off)” value in experiment [2] is on record as 2. In addition, in experiment [3], the MIC, LSM was 0.25 µg/mL (≈ 0.715 µM) and the Category result is “S”.
As for `O=C(N[C@H](CO)[C@H](O)c1ccc([N+](=O)[O-])cc1)C(Cl)Cl` [Chloramphenicol], the “EFSA (2012) values (microbiological cut-off)” value is 8 in experiment [1] and 4 in experiment [2]. Further, the MIC, LSM in experiment [4] and in experiment [3] was 2 µg/mL (≈ 6.19 µM) in each case. Besides, the Category result in experiment [4] and in experiment [3] was “S” in each case.
Turning to `CCC[C@@H]1C[C@@H](C(=O)N[C@@H]([C@H]2O[C@H](SC)[C@H](O)[C@@H](O)[C@H]2O)[C@H](C)Cl)N(C)C1` [Clindamycin], the MIC, LSM in experiment [4] and in experiment [3] was 0.125 µg/mL (≈ 0.294 µM) each time. Further, the Category entry in experiment [4] and in experiment [3] was “S” each time.
As for `NC[C@H]1O[C@H](O[C@H]2[C@H](O)[C@@H](O[C@H]3O[C@H](CO)[C@@H](O)[C@H](N)[C@H]3O)[C@H](N)C[C@@H]2N)[C@H](O)[C@@H](O)[C@@H]1O` [Kanamycin], in experiment [4], the MIC, LSM came out at 64 µg/mL (≈ 132 µM) and the Category result is recorded as “S”. In experiment [3], the MIC, LSM came to 64 µg/mL (≈ 132 µM) and the Category entry was “S”.
On to `[H]/N=C(/N)N[C@H]1[C@H](O)[C@@H](O)[C@H](O[C@@H]2O[C@@H](C)[C@](O)(C=O)[C@H]2O[C@@H]2O[C@@H](CO)[C@H](O)[C@@H](O)[C@@H]2NC)[C@@H](N/C(N)=N\[H])[C@@H]1O` [Streptomycin], for which the “EFSA (2012) values (microbiological cut-off)” value in experiment [2] is 64. The same molecule registered an MIC, LSM in experiment [4] of 32 µg/mL (≈ 55 µM). Also, in experiment [3], the MIC, LSM came out at 32 µg/mL (≈ 55 µM) and the Category result is listed as “S”.
As for `CN(C)[C@@H]1C(O)=C(C(N)=O)C(=O)[C@@]2(O)C(O)=C3C(=O)c4c(O)cccc4[C@@](C)(O)[C@H]3C[C@@H]12` [Tetracycline], in experiment [4], the MIC, LSM came to 4 µg/mL (≈ 9 µM) and the Category result is recorded as “S”. For the same molecule, in experiment [3], the MIC, LSM turned out to be 4 µg/mL (≈ 9 µM) and the Category entry is recorded as “S”.
With `CN[C@H](CC(C)C)C(=O)N[C@H]1C(=O)N[C@@H](CC(N)=O)C(=O)N[C@H]2C(=O)N[C@H]3C(=O)N[C@H](C(=O)N[C@H](C(=O)O)c4cc(O)cc(O)c4-c4cc3ccc4O)[C@H](O)c3ccc(c(Cl)c3)Oc3cc2cc(c3O[C@@H]2O[C@H](CO)[C@@H](O)[C@H](O)[C@H]2O[C@H]2C[C@](C)(N)[C@H](O)[C@H](C)O2)Oc2ccc(cc2Cl)[C@H]1O` [Vancomycin], the MIC, LSM in experiment [4] and in experiment [3] was 512 µg/mL (≈ 353 µM) in each case. Also, the Category entry in experiment [3] is listed as “R”.
Gentamicin: the results for the “EFSA (2012) values (microbiological cut-off)” value in experiment [1] and in experiment [2] were 16 and 8, respectively. For the same molecule, the MIC, LSM in experiment [4] was determined as 1 µg/mL; in experiment [3] it was 2 µg/mL. In addition, the Category entry in experiment [4] and in experiment [3] was “S” in each case.
